Experimental data from US20240374598A1, “INHIBITORS OF HUMAN IMMUNODEFICIENCY VIRUS REPLICATION” (ViiV HEALTHCARE UK (NO.5) LIMITED, priority 2018, published 2024).
pEC50: −log10 of the molar value.

Legend:
[1] = system: recombinant NL4-3 virus (nef section replaced with Renilla luciferase gene) in MT-2 cells; assay: HIV cell culture assay (antiviral activity, luciferase readout); type: cell-based; settings: NL43, MT-2 cells infected for 4-5 days with recombinant NL4-3 Renilla luciferase virus
Summary of the method: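 MT-2 cells were infected for 4–5 days with NL4-3 reporter virus carrying Renilla luciferase in place of part of nef, in the presence of serially diluted compound. Luciferase activity, read with a live-cell substrate, gave percent inhibition; EC50 derived from the median effect equation.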

[2] = Compound cytotoxicity, XTT-based colorimetric assay; type: cell-based; settings: human; uninfected MT2 cells, day 4, XTT assay
Protocol: Compound cytotoxicity and the corresponding CC50 values were determined using the same protocol as described in the antiviral assay except that uninfected cells were used. Cytotoxicity was assessed on day 4 in uninfected MT2 cells by using a XTT (2,3-bis[2-Methoxy-4-nitro-5-sulfophenyl]-2H-tetrazolium-5-carboxyanilide inner salt)-based colorimetric assay (Sigma-Aldrich, St Louis, Mo).

COc1ccc2c(=O)n(-c3ccc(Cl)c4c(NS(C)(=O)=O)nn(C)c34)c([C@H](Cc3cc(F)cc(F)c3)NC(=O)Cn3ccc(C4CC4)n3)nc2n1 [Example 36, (S)—N-(1-(3-(4-chloro-1-methyl-3-(methylsulfonamido)-1H-indazol-7-yl)-7-methoxy-4-oxo-3,4-dihydropyrido[2,3-d]pyrimidin-2-yl)-2-(3,5-difluorophenyl)ethyl)-2-(3-cyclopropyl-1H-pyrazol-1-yl)acetamide]
pEC50 [1]: 9.88 | CC50 at 4 day [2]: > 1000 nM
